# Measurements as given in ChEMBL document CHEMBL3045348, “Thiazoles: having diverse biological activities” (Med Chem Res, 2012).
# Test: Antioxidant activity assessed as trolox equivalents of ABTS radical scavenging activity
# Type: functional
smiles,measurement,value
COc1ccc(Nc2nc(N)c(C(=O)c3ccccc3)s2)cc1,Activity,0.17 µM
